Assay results taken from ChEMBL document CHEMBL3769303, “Discovery of membrane active benzimidazole quinolones-based topoisomerase inhibitors as potential DNA-binding antimicrobial agents” (Eur J Med Chem, 2016).
Values after ≈ are worked out from the molar mass of the structure shown. Active and inactive are the calls of the source. No cut-off for these calls is given here.

How the values were obtained:
[1] = Antifungal activity against Candida mycoderma ATCC 9888 after 24 hrs by micro broth dilution method; format: functional; details: Candida vini
Salmonella enterica = assay: Antibacterial activity against Salmonella enterica ATCC 14028 by micro broth dilution method; format: functional
Bacillus spizizenii = assay: Antibacterial activity against Bacillus subtilis ATCC 6633 by micro broth dilution method; format: functional
Staphylococcus aureus [2] = assay: Antibacterial activity against Staphylococcus aureus ATCC 25923 by micro broth dilution method; format: functional
Staphylococcus aureus [3] = assay: Antibacterial activity against methicillin-resistant Staphylococcus aureus N315 by micro broth dilution method; format: functional
[4] = Antibacterial activity against Bacillus proteus ATCC 13315 by micro broth dilution method; format: functional
Saccharomyces cerevisiae = assay: Antifungal activity against Saccharomyces cerevisiae ATCC 9763 after 24 hrs by micro broth dilution method; format: functional; details: ATCC 9763, 24 h
Shigella dysenteriae = assay: Antibacterial activity against Shigella dysenteriae by micro broth dilution method; format: functional
Escherichia coli [5] = assay: Antibacterial activity against Escherichia coli JM109 by micro broth dilution method; format: functional
Pseudomonas aeruginosa = assay: Antibacterial activity against Pseudomonas aeruginosa ATCC 27853 by micro broth dilution method; format: functional
Escherichia coli [6] = assay: Antibacterial activity against Escherichia coli DH52 by micro broth dilution method; format: functional
Candida albicans = assay: Antifungal activity against Candida albicans ATCC 10231 after 24 hrs by micro broth dilution method; format: functional; details: ATCC 10231, 24 h
Aspergillus flavus = assay: Antifungal activity against Aspergillus flavus ATCC 204304 after 24 hrs by micro broth dilution method; format: functional; details: ATCC 204304, 24 h
Cyberlindnera jadinii = assay: Antifungal activity against Candida utilis ATCC 9950 after 24 hrs by micro broth dilution method; format: functional; details: Williopsis jadinii, ATCC 9950, 24 h
Micrococcus luteus = assay: Antibacterial activity against Micrococcus luteus ATCC 4698 by micro broth dilution method; format: functional; details: NCTC 2665
Staphylococcus aureus [7] = assay: Antibacterial activity against methicillin-resistant Staphylococcus aureus N315 at MIC measured after 6 passages; format: functional, organism-based
Calf thymus DNA = assay: Binding affinity to calf thymus DNA by UV-visible spectroscopy; format: nucleic-acid assay; details: Bos taurus

O=C(O)c1cn(C2CC2)c2cc(N3CCN(c4nc5ccccc5[nH]4)CC3)c(F)cc2c1=O
MIC80 [1]: 16 µg/mL (≈ 35.8 µM) | MIC (Salmonella enterica): 1 µg/mL (≈ 2.23 µM) | MIC (Bacillus spizizenii): 2 µg/mL (≈ 4.47 µM) | MIC (Staphylococcus aureus [2]): 1 µg/mL (≈ 2.23 µM) | MIC (Staphylococcus aureus [3]): 0.5 µg/mL (≈ 1.12 µM) | MIC [4]: 2 µg/mL (≈ 4.47 µM) | MIC80 (Saccharomyces cerevisiae): 1 µg/mL (≈ 2.23 µM) | MIC (Shigella dysenteriae): 0.5 µg/mL (≈ 1.12 µM) | MIC (Escherichia coli [5]): 2 µg/mL (≈ 4.47 µM) | MIC (Pseudomonas aeruginosa): 0.5 µg/mL (≈ 1.12 µM) | MIC (Escherichia coli [6]): 1 µg/mL (≈ 2.23 µM) | MIC80 (Candida albicans): 2 µg/mL (≈ 4.47 µM) | MIC80 (Aspergillus flavus): 1 µg/mL (≈ 2.23 µM) | MIC80 (Cyberlindnera jadinii): 4 µg/mL (≈ 8.94 µM) | MIC (Micrococcus luteus): 1 µg/mL (≈ 2.23 µM)

CCCCCCCCCCn1c(CN2CCN(c3cc4c(cc3F)c(=O)c(C(=O)O)cn4C3CC3)CC2)nc2ccccc21
MIC80 [1]: 64 µg/mL (≈ 106 µM) | MIC (Salmonella enterica): 32 µg/mL (≈ 53.2 µM) | MIC (Bacillus spizizenii): 64 µg/mL (≈ 106 µM) | MIC (Staphylococcus aureus [2]): 64 µg/mL (≈ 106 µM) | MIC (Staphylococcus aureus [3]): 64 µg/mL (≈ 106 µM) | MIC [4]: 32 µg/mL (≈ 53.2 µM) | MIC80 (Saccharomyces cerevisiae): 16 µg/mL (≈ 26.6 µM) | MIC (Shigella dysenteriae): 64 µg/mL (≈ 106 µM) | MIC (Escherichia coli [5]): 128 µg/mL (≈ 213 µM) | MIC (Pseudomonas aeruginosa): 32 µg/mL (≈ 53.2 µM) | MIC (Escherichia coli [6]): 128 µg/mL (≈ 213 µM) | MIC80 (Candida albicans): 64 µg/mL (≈ 106 µM) | MIC80 (Aspergillus flavus): 16 µg/mL (≈ 26.6 µM) | MIC80 (Cyberlindnera jadinii): 64 µg/mL (≈ 106 µM) | MIC (Micrococcus luteus): 128 µg/mL (≈ 213 µM)

O=C(O)c1cn(C2CC2)c2cc(N3CCN(Cc4nc5ccc([N+](=O)[O-])cc5[nH]4)CC3)c(F)cc2c1=O
MIC80 [1]: 8 µg/mL (≈ 15.8 µM) | MIC (Salmonella enterica): 4 µg/mL (≈ 7.9 µM) | MIC (Bacillus spizizenii): 8 µg/mL (≈ 15.8 µM) | MIC (Staphylococcus aureus [2]): 16 µg/mL (≈ 31.6 µM) | MIC (Staphylococcus aureus [3]): 2 µg/mL (≈ 3.95 µM) | MIC [4]: 4 µg/mL (≈ 7.9 µM) | MIC80 (Saccharomyces cerevisiae): 4 µg/mL (≈ 7.9 µM) | MIC (Shigella dysenteriae): 4 µg/mL (≈ 7.9 µM) | MIC (Escherichia coli [5]): 8 µg/mL (≈ 15.8 µM) | MIC (Pseudomonas aeruginosa): 0.5 µg/mL (≈ 0.987 µM) | MIC (Escherichia coli [6]): 4 µg/mL (≈ 7.9 µM) | MIC80 (Candida albicans): 2 µg/mL (≈ 3.95 µM) | MIC80 (Aspergillus flavus): 4 µg/mL (≈ 7.9 µM) | MIC80 (Cyberlindnera jadinii): 4 µg/mL (≈ 7.9 µM) | MIC (Micrococcus luteus): 8 µg/mL (≈ 15.8 µM)

CCn1cc(C(=O)O)c(=O)c2cc(F)c(N3CCNCC3)cc21 [NORFLOXACIN]
MIC (Salmonella enterica): 4 µg/mL (≈ 12.5 µM) | MIC (Bacillus spizizenii): 4 µg/mL (≈ 12.5 µM) | MIC (Staphylococcus aureus [2]): 2 µg/mL (≈ 6.26 µM) | MIC (Staphylococcus aureus [3]): 8 µg/mL (≈ 25.1 µM) | MIC [4]: 8 µg/mL (≈ 25.1 µM) | MIC (Shigella dysenteriae): 16 µg/mL (≈ 50.1 µM) | Activity (Staphylococcus aureus [7]): inactive | MIC (Escherichia coli [5]): 1 µg/mL (≈ 3.13 µM) | MIC (Pseudomonas aeruginosa): 16 µg/mL (≈ 50.1 µM) | MIC (Escherichia coli [6]): 1 µg/mL (≈ 3.13 µM) | Activity (Calf thymus DNA): Active | MIC (Micrococcus luteus): 2 µg/mL (≈ 6.26 µM)

O=C(O)c1cn(C2CC2)c2cc(N3CCN(Cc4nc5ccc(F)cc5[nH]4)CC3)c(F)cc2c1=O
MIC80 [1]: 2 µg/mL (≈ 4.17 µM) | MIC (Salmonella enterica): 1 µg/mL (≈ 2.09 µM) | MIC (Bacillus spizizenii): 0.5 µg/mL (≈ 1.04 µM) | MIC (Staphylococcus aureus [2]): 4 µg/mL (≈ 8.34 µM) | MIC (Staphylococcus aureus [3]): 2 µg/mL (≈ 4.17 µM) | MIC [4]: 1 µg/mL (≈ 2.09 µM) | MIC80 (Saccharomyces cerevisiae): 0.5 µg/mL (≈ 1.04 µM) | MIC (Shigella dysenteriae): 2 µg/mL (≈ 4.17 µM) | MIC (Escherichia coli [5]): 4 µg/mL (≈ 8.34 µM) | MIC (Pseudomonas aeruginosa): 2 µg/mL (≈ 4.17 µM) | MIC (Escherichia coli [6]): 1 µg/mL (≈ 2.09 µM) | MIC80 (Candida albicans): 8 µg/mL (≈ 16.7 µM) | MIC80 (Aspergillus flavus): 1 µg/mL (≈ 2.09 µM) | MIC80 (Cyberlindnera jadinii): 1 µg/mL (≈ 2.09 µM) | MIC (Micrococcus luteus): 2 µg/mL (≈ 4.17 µM)

CCCCCCn1c(CN2CCN(c3cc4c(cc3F)c(=O)c(C(=O)O)cn4C3CC3)CC2)nc2ccccc21
MIC80 [1]: 8 µg/mL (≈ 14.7 µM) | MIC (Salmonella enterica): 16 µg/mL (≈ 29.3 µM) | MIC (Bacillus spizizenii): 16 µg/mL (≈ 29.3 µM) | MIC (Staphylococcus aureus [2]): 256 µg/mL (≈ 469 µM) | MIC (Staphylococcus aureus [3]): 128 µg/mL (≈ 235 µM) | MIC [4]: 16 µg/mL (≈ 29.3 µM) | MIC80 (Saccharomyces cerevisiae): 128 µg/mL (≈ 235 µM) | MIC (Shigella dysenteriae): 64 µg/mL (≈ 117 µM) | MIC (Escherichia coli [5]): 64 µg/mL (≈ 117 µM) | MIC (Pseudomonas aeruginosa): 16 µg/mL (≈ 29.3 µM) | MIC (Escherichia coli [6]): 16 µg/mL (≈ 29.3 µM) | MIC80 (Candida albicans): 16 µg/mL (≈ 29.3 µM) | MIC80 (Aspergillus flavus): 128 µg/mL (≈ 235 µM) | MIC80 (Cyberlindnera jadinii): 32 µg/mL (≈ 58.6 µM) | MIC (Micrococcus luteus): 32 µg/mL (≈ 58.6 µM)
